Experimental data: patent US10363239B2, “Method for inhibiting growth of cancer cells” (Pain Therapeutics, Inc., priority 2013, dated 2019)
Where two headings read alike, the source gives them in different places.

Experiments:
[1] = system: mu opiate receptor (MOR); test: MOR agonist activity using [35S]GTPγS binding assay in striatal membranes; type: biochemical; conditions: for % DAMGO (0.1 μM) / % DAMGO (1 μM): relative to DAMGO; for % DAMGO + BFNA: 1 μM compound + β-FNA, relative to DAMGO + BFNA
Method: To assess the mu opiate receptor (MOR) agonist activity of positive compounds from the FLNA screening, compounds were tested in a [^35S]GTPγS binding assay using striatal membranes. […] This assay measures a functional consequence of receptor occupancy at one of the earliest receptor-mediated events. The assay permits traditional pharmacological parameters of potency, efficacy and antagonist affinity, with the advantage that agonist measures are not subjected to amplification or other modulation that may occur when analyzing parameters further downstream of the receptor.
Thus, striatal tissue was homogenized in 10 volumes of ice cold 25 mM HEPES buffer, pH 7.4, which contained 1 mM EGTA, 100 mM sucrose, 50 μg/ml leupeptin, 0.04 mM PMSF, 2 μg/ml soybean trypsin inhibitor and 0.2% 2-mercaptoethanol. The homogenates were centrifuged at 800×g for 5 minutes and the supernatants were centrifuged at 49,000×g for 20 minutes. The resulting pellets were suspended in 10 volume of reaction buffer, which contained 25 mM HEPES, pH 7.5, 100 mM NaCl, 50 μg/ml leupeptin, 2 μg/ml soybean trypsin inhibitor, 0.04 mM PMSF and 0.02% […].
The resultant striatal membrane preparation (200 μg) was admixed and maintained (incubated) at 30° C. for 5 minutes in reaction buffer as above that additionally contained 1 mM MgCl2 and 0.5 nM [^35S]GTPγS (0.1 μCi/assay, PerkinElmer Life and Analytical Sciences) in a total volume of 250 μl and continued for 5 minutes in the absence or presence of 0.1-10 μM of an assayed compound of interest. The reaction was terminated by dilution with 750 μl of ice-cold reaction buffer that contained 20 mM MgCl2 and 1 mM EGTA and immediate centrifugation at 16,000×g for 5 minutes.
The resulting pellet was solubilized by sonicating for 10 seconds in 0.5 ml of immunoprecipitation buffer containing 0.5% digitonin, 0.2% sodium cholate and 0.5% NP-40. Normal rabbit serum (1 μl) was added to 1 ml of lysate and incubated at 25° C. for 30 minutes. Nonspecific immune complexes were removed by incubation with 25 μl of protein A/G-conjugated agarose beads at 25° C. for 30 minutes followed by centrifugation at 5,000×g at 4° C. for 5 minutes. The supernatant was divided and separately incubated at 25° C. for 30 minutes with antibodies raised against Gαo proteins (1:1,000 dilutions).
The immunocomplexes so formed were collected by incubation at 25° C. for 30 minutes with 40 μl of agarose-conjugated protein A/G beads and centrifugation at 5,000×g at 4° C. for 5 minutes. The pellet was washed and suspended in buffer containing 50 mM Tris-HCl, pH 8.0, and 1% NP-40. The radioactivity in the suspension was determined by liquid scintillation spectrometry.

[2] = target: FLNA pentapeptide of SEQ ID NO: 1 (Bn-VAKGL) (Homo sapiens, UniProt P21333); test: FITC-NLX-based FLNA screening assay (inhibition of FITC-naloxone binding to Bn-VAKGL on streptavidin plates); conditions: for inhibition at 0.01 µM / inhibition at 0.1 µM / inhibition at 1 µM: 10 nM FITC-NLX; for Inhibition of 10 nM FITC-conjugated NLX binding to biotinylated FLNA pentapeptide (FIG. 28): 1 μM
[3] = Series C-1, 0.1 μM compound, [35S]GTPγS binding to Gαo, striatal membranes
[4] = Series C-1, 1 μM compound + 1 μM β-FNA
[5] = Series C-1, 1 μM compound, [35S]GTPγS binding to Gαo, striatal membranes
[6] = Series C-2, 0.1 μM compound, [35S]GTPγS binding to Gαo, striatal membranes
[7] = Series C-2, 1 μM compound + 1 μM β-FNA
[8] = Series C-2, 1 μM compound, [35S]GTPγS binding to Gαo, striatal membranes
[9] = FLNA-binding compound 0.01 μM, read-out: Percent Binding Inhibition
[10] = FLNA-binding compound 0.1 μM, read-out: Percent Binding Inhibition
[11] = FLNA-binding compound 1 μM, read-out: Percent Binding Inhibition

O=C(c1ccc([N+](=O)[O-])cc1)N1CCC2(CC1)OCCN2S(=O)(=O)c1ccc([N+](=O)[O-])cc1 [Compound C0033]
% DAMGO (0.1 μM) ([1]; Series C-1, 0.1 μM compound): 85.9%
Concentration of FLNA-Binding Compound as Agonist 0.1 μM [1, 3]: 134.5%
Concentration of FLNA-Binding Compound as Agonist 1 μM + BFNA [1, 4]: 76.6%
% DAMGO + BFNA ([1]; Series C-1): 235.0%
% DAMGO (1 μM) ([1]; Series C-1, 1 μM compound): 80.6%
Concentration of FLNA-Binding Compound as Agonist 1 μM [1, 5]: 186.4%

O=C1CN(Cc2ccccc2)C2(CCN(C3CCCCC3)CC2)N1 [C0137M(P7)]
% DAMGO (0.1 μM) ([1]; Series C-2, 0.1 μM compound): 95.6%
MOR agonist activity, percent [35S]GTPγS binding at the stated compound concentration [1, 6]: 180.8%
MOR agonist activity, percent [35S]GTPγS binding at the stated compound concentration [1, 7]: 55.8%
% DAMGO + BFNA ([1]; Series C-2): 115.1%
% DAMGO (1 μM) ([1]; Series C-2, 1 μM compound): 78.1%
MOR agonist activity, percent [35S]GTPγS binding at the stated compound concentration [1, 8]: 193.8%

COc1ccc(S(=O)(=O)N2CCC3(NCCO3)C3CCCCC32)cc1 (centres unmarked) [Compound C0144M-2]
% DAMGO (0.1 μM) ([1]; Series C-2, 0.1 μM compound): 108.3%
MOR agonist activity, percent [35S]GTPγS binding at the stated compound concentration [1, 6]: 186.3%
MOR agonist activity, percent [35S]GTPγS binding at the stated compound concentration [1, 7]: 125.9%
% DAMGO + BFNA ([1]; Series C-2): 137.9%
% DAMGO (1 μM) ([1]; Series C-2, 1 μM compound): 90.8%
MOR agonist activity, percent [35S]GTPγS binding at the stated compound concentration [1, 8]: 295.9%

CC(=O)c1ccc(S(=O)(=O)N2CCC3(CC2)NCC(=O)N3Cc2ccccc2)cc1 [Compound C0082M]
% DAMGO (0.1 μM) ([1]; Series C-1, 0.1 μM compound): 113.7%
Concentration of FLNA-Binding Compound as Agonist 0.1 μM [1, 3]: 228.1%
Concentration of FLNA-Binding Compound as Agonist 1 μM + BFNA [1, 4]: 97.6%
% DAMGO + BFNA ([1]; Series C-1): 181.1%
% DAMGO (1 μM) ([1]; Series C-1, 1 μM compound): 107.8%
Concentration of FLNA-Binding Compound as Agonist 1 μM [1, 5]: 338.4%

COc1ccc(S(=O)(=O)N2CCOC23CCCNC3)cc1 (centres unmarked) [Compound C0145M-3]
% DAMGO (0.1 μM) ([1]; Series C-2, 0.1 μM compound): 112.2%
MOR agonist activity, percent [35S]GTPγS binding at the stated compound concentration [1, 6]: 193.0%
MOR agonist activity, percent [35S]GTPγS binding at the stated compound concentration [1, 7]: 87.0%
% DAMGO + BFNA ([1]; Series C-2): 95.3%
% DAMGO (1 μM) ([1]; Series C-2, 1 μM compound): 88.7%
MOR agonist activity, percent [35S]GTPγS binding at the stated compound concentration [1, 8]: 289.2%

O=C1CN(Cc2ccccc2)C2(CCN(S(=O)(=O)c3cc(Cl)cc(Cl)c3O)CC2)N1 [Compound C0138M]
% DAMGO (0.1 μM) ([1]; Series C-1, 0.1 μM compound): 86.3%
Concentration of FLNA-Binding Compound as Agonist 0.1 μM [1, 3]: 126.9%
Concentration of FLNA-Binding Compound as Agonist 1 μM + BFNA [1, 4]: 51.5%
% DAMGO + BFNA ([1]; Series C-1): 131.0%
% DAMGO (1 μM) ([1]; Series C-1, 1 μM compound): 90.9%
Concentration of FLNA-Binding Compound as Agonist 1 μM [1, 5]: 183.9%

CC(=O)c1ccc(S(=O)(=O)N2CCC3(CC2)NC(=O)CN3Cc2ccccc2)cc1 [Compound C0085M]
% DAMGO (0.1 μM) ([1]; Series C-1, 0.1 μM compound): 105.5%
% DAMGO + BFNA ([1]; Series C-1): 112.6%
% DAMGO (1 μM) ([1]; Series C-1, 1 μM compound): 78.4%

COc1c2c(cc3c1C(CC(=O)CCc1ccccc1)[N+](C)(C)CC3)OCO2 (centres unmarked) [Compound B0015]
inhibition at 0.01 µM ([2]; read-out: Percent Binding Inhibition, FLNA-binding compound 0.01 μM): 30.4%
inhibition at 0.1 µM ([2]; read-out: Percent Binding Inhibition, FLNA-binding compound 0.1 μM): 35.3%
inhibition at 1 µM ([2]; read-out: Percent Binding Inhibition, FLNA-binding compound 1 μM): 42.3%

O=S(=O)(c1ccccc1Oc1ccccc1)N1CCC2(CC1)NCCO2 [Compound C0149M-2]
% DAMGO (0.1 μM) ([1]; Series C-2, 0.1 μM compound): 122.0%
MOR agonist activity, percent [35S]GTPγS binding at the stated compound concentration [1, 6]: 209.8%
MOR agonist activity, percent [35S]GTPγS binding at the stated compound concentration [1, 7]: 93.4%
% DAMGO + BFNA ([1]; Series C-2): 102.3%
% DAMGO (1 μM) ([1]; Series C-2, 1 μM compound): 124.8%
MOR agonist activity, percent [35S]GTPγS binding at the stated compound concentration [1, 8]: 406.7%

COc1ccc(CCCCC2c3c(cc4c(c3OC)OCO4)CC[N+]2(C)C)cc1 (centres unmarked) [Compound B0056]
% DAMGO (0.1 μM) ([1]; Series B, 0.1 μM compound): 98.9%
MOR agonist activity, percent [35S]GTPγS binding at the stated compound concentration ([1]; Series B, 0.1 μM compound, [35S]GTPγS binding to Gαo, striatal membranes): 174.7%
MOR agonist activity, percent [35S]GTPγS binding at the stated compound concentration ([1]; Series B, 1 μM compound + 1 μM β-FNA): 41.8%
% DAMGO + BFNA ([1]; Series B): 158.9%
% DAMGO (1 μM) ([1]; Series B, 1 μM compound): 113.6%
MOR agonist activity, percent [35S]GTPγS binding at the stated compound concentration ([1]; Series B, 1 μM compound, [35S]GTPγS binding to Gαo, striatal membranes): 288.8%

O=C1CNC2(CCN(CC3CC3)CC2)N1 [Compound C0123M]
inhibition at 0.01 µM [2, 9]: 51.9%
inhibition at 0.1 µM [2, 10]: 60.5%
inhibition at 1 µM [2, 11]: 62.9%

C=CCN1CC[C@]23c4c5ccc(O)c4O[C@H]2C(=O)CC[C@@]3(O)[C@H]1C5 [NLX, naloxone, reference compound]
Inhibition of 10 nM FITC-conjugated NLX binding to biotinylated FLNA pentapeptide (FIG. 28) [2]: inhibit well

O=C1CNC2(CCN(S(=O)(=O)c3ccc(O)cc3)CC2)N1Cc1ccccc1 [Compound C0148M]
inhibition at 0.01 µM [2, 9]: 46.2%
inhibition at 0.1 µM [2, 10]: 52%
inhibition at 1 µM [2, 11]: 57%

C[C@@H](NC(=O)[C@@H](N)Cc1ccc(O)cc1)C(=O)NCC(=O)N(C)[C@@H](Cc1ccccc1)C(=O)NCCO [DAMGO, [D-Ala2, N-MePhe4, Gly-ol]-enkephalin, reference compound]
MOR agonist activity, FLNA-Binding Compound as Agonist 0.1 μM (preliminary study) ([1]; 0.1 μM, average of two runs): 144.7%
MOR agonist activity, FLNA-Binding Compound as Agonist 1 μM + βNFA (preliminary study) ([1]; 1 μM + βNFA, average of two runs): 56.8%
MOR agonist activity, FLNA-Binding Compound as Agonist 1 μM (preliminary study) ([1]; 1 μM, average of two runs): 233.4%
% DAMGO (0.1 μM) ([1]; Series C-1, 0.1 μM compound): 100%
Concentration of FLNA-Binding Compound as Agonist 0.1 μM [1, 3]: 168.5%
Concentration of FLNA-Binding Compound as Agonist 1 μM + BFNA [1, 4]: 53.2%
% DAMGO + BFNA ([1]; Series C-1): 100%
% DAMGO (1 μM) ([1]; Series C-1, 1 μM compound): 100%
Concentration of FLNA-Binding Compound as Agonist 1 μM [1, 5]: 266.1%
% DAMGO (0.1 μM) ([1]; Series C-2, 0.1 μM compound): 100%
Concentration of FLNA-Binding Compound as Agonist 0.1 μM [1, 6]: 168.5%
Concentration of FLNA-Binding Compound as Agonist 1 μM + BFNA [1, 7]: 53.2%
% DAMGO + BFNA ([1]; Series C-2): 100%
% DAMGO (1 μM) ([1]; Series C-2, 1 μM compound): 100%
Concentration of FLNA-Binding Compound as Agonist 1 μM [1, 8]: 266.1%

O=C1CC[C@@]2(O)[C@H]3Cc4ccc(O)c5c4[C@@]2(CCN3CC2CC2)[C@H]1O5 [NTX, naltrexone, reference compound]
Inhibition of 10 nM FITC-conjugated NLX binding to biotinylated FLNA pentapeptide (FIG. 28) [2]: inhibit well

CC(=O)c1ccc(S(=O)(=O)N2CCC3(CC2)NCCO3)cc1 [Compound C0055]
inhibition at 0.01 µM [2, 9]: 29%
inhibition at 0.1 µM [2, 10]: 34.9%
inhibition at 1 µM [2, 11]: 39.5%

COc1ccc(NC(=O)N2CCC3(CC2)NCCO3)cc1 [Compound C0151M-2]
% DAMGO (0.1 μM) ([1]; Series C-2, 0.1 μM compound): 201.6%
MOR agonist activity, percent [35S]GTPγS binding at the stated compound concentration [1, 6]: 346.8%
MOR agonist activity, percent [35S]GTPγS binding at the stated compound concentration [1, 7]: 212.8%
% DAMGO + BFNA ([1]; Series C-2): 233.1%
% DAMGO (1 μM) ([1]; Series C-2, 1 μM compound): 122.0%
MOR agonist activity, percent [35S]GTPγS binding at the stated compound concentration [1, 8]: 397.6%
